The text below walks through data of ChEMBL document CHEMBL5647694, “Novel orally bioavailable EZH1/2 dual inhibitors with greater antitumor efficacy than an EZH2 selective inhibitor” (Cancer Sci, 2017).

For data set [1], the target named is Casein kinase I isoform delta (Homo sapiens) (UniProt P48730). The data set is described as follows: Inhibition of N-terminal GST-fused human CK1delta catalytic domain (1 to 294 residues) expressed in Escherichia coli expression system using CKtide as substrate at 1 uM in presence of ATP by Mobility shift assay.
In data set [2] the target is Mitogen-activated protein kinase 8 (Homo sapiens) (UniProt P45983). The data set is described as follows: Inhibition of N-terminal GST-fused human JNK1 catalytic domain (2 to 364 residues) expressed in Escherichia coli expression system using Modified ERKtide as substrate at 1 uM in presence of ATP by Mobility shift assay.
Data set [3] can be described thus: Mean AUC (0-24 hrs) in Crl:CD Sprague-Dawley rat at 100 mg/kg, po by LC/MS/MS analysis. Format: ADME, organism-based. The note with it: in vivo.
The nature of data set [4]: Toxicity in Crl:CD Sprague-Dawley rat assessed as red blood cell count in blood at 100 mg/kg, po administered daily for 14 days (reference value: 6.71+/-0.386 10^6/uL). Format: organism-based. The note with it: in vivo, 336 h, time 14 day.
The nature of data set [5]: Toxicity in Crl:CD Sprague-Dawley rat assessed as MCHC level in blood at 100 mg/kg, po administered daily for 14 days (reference value: 32.7 +/-0.05%). Format: organism-based. The following applies: in vivo, 336 h, time 14 day.
Data set [6] is described as follows: Toxicity in Crl:CD Sprague-Dawley rat assessed as total bilirubin level in blood at 100 mg/kg, po administered daily for 14 days (reference value: 0.003+/-0.005 mg/dL). The note with it: in vivo, 336 h, time 14 day. Format: organism-based.
Data set [7] can be described thus: Toxicity in Crl:CD Sprague-Dawley rat assessed as globulin level in blood at 100 mg/kg, po administered daily for 14 days (reference value: 1.6 +/-0.082 g/dL). The following applies: in vivo, 336 h, time 14 day. Format: organism-based.
Data set [8] is described as follows: Toxicity in Crl:CD Sprague-Dawley rat assessed as decrease of lymphocytes in thymus cortex at 100 mg/kg, po administered daily for 14 days by hematoxylin and eosin staining based analysis. Format: organism-based. The note with it: in vivo, 336 h, time 14 day.
Data set [9] in a line: Toxicity in Crl:CD Sprague-Dawley rat assessed as vacuolation of histiocytes in thymus cortex at 100 mg/kg, po administered daily for 14 days by hematoxylin and eosin staining based analysis. Format: organism-based. The note with it: in vivo, 336 h, time 14 day.
Data set [10] can be described thus: Toxicity in Crl:CD Sprague-Dawley rat assessed as atrophy of hepatocytes in liver at 100 mg/kg, po administered daily for 14 days by hematoxylin and eosin staining based analysis. Format: organism-based. The following applies: in vivo, 336 h, time 14 day.
Another data set has as its system SUP-B15. The data set is described as follows: Antitumor activity against human SUP-B15 cells assessed as cell growth inhibition treated for 10 to 15 days. The note with it: time 10-15 day. Format: functional.
In another data set the test system is NCI-H929. The data set is described as follows: Antitumor activity against human NCI-H929 cells assessed as cell growth inhibition treated for 10 to 15 days. Format: functional. The following applies: time 10-15 day.
A further data set has as its system P3HR-1. The data set is described as follows: Antitumor activity against human P3HR-1 cells assessed as cell growth inhibition treated for 10 to 15 days. Format: functional. The note with it: time 10-15 day.
Data set [11] has as its target Histone-lysine N-methyltransferase EHMT1 (Homo sapiens, UniProt Q9H9B1). The data set is described as follows: Inhibition of human GLP using Histone H3 (1-21 residues) and [3H]SAM as substrate incubated for 30 mins to 1 hr by HotSpot kinase assay.
Data set [12] concerns the target Histone-lysine N-methyltransferase, H3 lysine-36 specific (Homo sapiens, UniProt Q96L73). The data set is described as follows: Inhibition of human NSD1 using Nucleosomes and [3H]SAM as substrate incubated for 30 mins to 1 hr by HotSpot kinase assay.
Data set [13] deals with Histone-lysine N-methyltransferase SETD1B (Homo sapiens, UniProt Q9UPS6). The data set is described as follows: Inhibition of human SET1B using Core Histone and [3H]SAM as substrate incubated for 30 mins to 1 hr by HotSpot kinase assay.
Data set [14] concerns the target Histone-lysine N-methyltransferase SETD7 (Homo sapiens, UniProt Q8WTS6). The data set is described as follows: Inhibition of human SET7/9 using Core Histone and [3H]SAM as substrate incubated for 30 mins to 1 hr by HotSpot kinase assay.
In data set [15] the target is Protein arginine N-methyltransferase 3 (Homo sapiens, UniProt O60678). The data set is described as follows: Inhibition of human PRMT3 using Histone H4 and [3H]SAM as substrate incubated for 30 mins to 1 hr by HotSpot kinase assay.
In data set [16] the target is Histone-arginine methyltransferase CARM1 (Homo sapiens, UniProt Q86X55). The data set is described as follows: Inhibition of human PRMT4 using Histone H3 and [3H]SAM as substrate incubated for 30 mins to 1 hr by HotSpot kinase assay.
In data set [17] the target is Protein arginine N-methyltransferase 8 (Homo sapiens, UniProt Q9NR22). The data set is described as follows: Inhibition of human PRMT8 using Histone H4 and [3H]SAM as substrate incubated for 30 mins to 1 hr by HotSpot kinase assay.
Data set [18] deals with DNA (cytosine-5)-methyltransferase 1 (Homo sapiens, UniProt P26358). The data set is described as follows: Inhibition of human DNMT1 using Poly (dl-dC) and [3H]SAM as substrate incubated for 30 mins to 1 hr by HotSpot kinase assay.
In data set [19] the target is Serine/threonine-protein kinase Sgk2 (Homo sapiens) (UniProt Q9HBY8). The data set is described as follows: Inhibition of N-terminal GST-fused full length human SGK2 (1 to 367 residues) expressed in baculovirus expression system using SGKtide as substrate at 1 uM in presence of ATP by Mobility shift assay.
A further data set deals with KARPAS-422. The data set is described as follows: Antitumor activity against human KARPAS-422 cells assessed as cell growth inhibition treated for 10 to 15 days. Format: functional. The note with it: time 10-15 day.
In a further data set the test system is SUD4. The data set is described as follows: Antitumor activity against human SU-DHL-4 cells assessed as cell growth inhibition treated for 10 to 15 days. Format: functional. The following applies: time 10-15 day.
The next data set relates to OCI-LY19. The data set is described as follows: Antitumor activity against human OCILY19 cells assessed as cell growth inhibition treated for 10 to 15 days. Format: functional. The note with it: time 10-15 day.
The subject of a further data set is SK-BR-3. The data set is described as follows: Antitumor activity against human SK-BR-3 cells assessed as cell growth inhibition treated for 10 to 15 days. Format: functional. The following applies: time 10-15 day.
The nature of data set [20]: Antitumor activity against human HCC1500 cells assessed as cell growth inhibition treated for 10 to 15 days. Format: functional. The note with it: time 10-15 day.
The subject of another data set is HCC1599. The data set is described as follows: Antitumor activity against human HCC1599 cells assessed as cell growth inhibition treated for 10 to 15 days. Format: functional. The following applies: time 10-15 day.
The subject of another data set is Hs-578T. The data set is described as follows: Antitumor activity against human Hs-578T cells assessed as cell growth inhibition treated for 10 to 15 days. Format: functional. The note with it: time 10-15 day.
The subject of a further data set is SNU-398. The data set is described as follows: Antitumor activity against human SNU-398 cells assessed as cell growth inhibition treated for 10 to 15 days. Format: functional. The note with it: time 10-15 day.
A short description of data set [21]: Antitumor activity against human NCI-H1781 cells assessed as cell growth inhibition treated for 10 to 15 days. The note with it: time 10-15 day. Format: functional.
Data set [22] in a line: Antitumor activity against human SNU-840 cells assessed as cell growth inhibition treated for 10 to 15 days. Format: functional. The note with it: time 10-15 day.
A short description of data set [23]: Antitumor activity against human MDA-PCa-2b cells assessed as cell growth inhibition treated for 10 to 15 days. The following applies: time 10-15 day. Format: functional.
The subject of another data set is HGC-27. The data set is described as follows: Antitumor activity against human HGC-27 cells assessed as cell growth inhibition treated for 10 to 15 days. Format: functional. The following applies: time 10-15 day.
A further data set has as its system Hs746T. The data set is described as follows: Antitumor activity against human Hs746T cells assessed as cell growth inhibition treated for 10 to 15 days. Format: functional. The following applies: time 10-15 day.
The next data set concerns ZR-75-30. The data set is described as follows: Antitumor activity against human ZR-75-30 cells assessed as cell growth inhibition treated for 10 to 15 days. Format: functional. The note with it: time 10-15 day.

Some results are limits rather than exact numbers.

In general, inhibition refers to the change of the read-out against control, counted positive when it falls. As a reminder, the AUC is concentration integrated over time. What is called GI50 is the concentration that inhibits growth by half. A word on the IC50: it is the concentration that gives 50% inhibition. A lower IC50 goes with higher potency.

Mitogen-activated protein kinase 8 (Homo sapiens), sequence (P45983 whole entry, the tested form may be a part): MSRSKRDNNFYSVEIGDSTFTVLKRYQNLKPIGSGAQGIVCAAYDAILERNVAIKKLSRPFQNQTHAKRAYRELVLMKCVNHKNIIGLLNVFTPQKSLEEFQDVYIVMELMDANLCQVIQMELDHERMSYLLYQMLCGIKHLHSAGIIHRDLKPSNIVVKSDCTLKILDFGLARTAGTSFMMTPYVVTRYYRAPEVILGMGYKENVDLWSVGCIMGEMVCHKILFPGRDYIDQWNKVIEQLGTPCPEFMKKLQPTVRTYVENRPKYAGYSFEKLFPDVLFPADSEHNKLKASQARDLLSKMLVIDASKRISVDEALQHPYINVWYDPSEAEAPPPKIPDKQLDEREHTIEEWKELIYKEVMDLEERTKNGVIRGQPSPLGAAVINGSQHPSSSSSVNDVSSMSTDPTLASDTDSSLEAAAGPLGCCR
Casein kinase I isoform delta (Homo sapiens), sequence (P48730 whole entry, looked up, the tested form may be a part, canonical isoform): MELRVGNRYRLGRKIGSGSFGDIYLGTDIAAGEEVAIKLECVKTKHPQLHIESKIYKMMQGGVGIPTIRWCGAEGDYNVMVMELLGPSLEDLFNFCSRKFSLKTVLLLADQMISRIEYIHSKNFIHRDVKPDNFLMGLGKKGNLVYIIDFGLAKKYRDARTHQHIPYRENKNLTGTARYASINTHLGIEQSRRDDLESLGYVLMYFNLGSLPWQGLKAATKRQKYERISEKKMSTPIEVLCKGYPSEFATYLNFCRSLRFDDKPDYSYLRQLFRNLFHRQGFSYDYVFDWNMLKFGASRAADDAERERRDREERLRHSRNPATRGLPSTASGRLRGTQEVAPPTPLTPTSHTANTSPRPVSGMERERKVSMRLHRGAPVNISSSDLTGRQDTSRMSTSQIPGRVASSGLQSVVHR
Histone-arginine methyltransferase CARM1, sequence (Q86X55 whole entry): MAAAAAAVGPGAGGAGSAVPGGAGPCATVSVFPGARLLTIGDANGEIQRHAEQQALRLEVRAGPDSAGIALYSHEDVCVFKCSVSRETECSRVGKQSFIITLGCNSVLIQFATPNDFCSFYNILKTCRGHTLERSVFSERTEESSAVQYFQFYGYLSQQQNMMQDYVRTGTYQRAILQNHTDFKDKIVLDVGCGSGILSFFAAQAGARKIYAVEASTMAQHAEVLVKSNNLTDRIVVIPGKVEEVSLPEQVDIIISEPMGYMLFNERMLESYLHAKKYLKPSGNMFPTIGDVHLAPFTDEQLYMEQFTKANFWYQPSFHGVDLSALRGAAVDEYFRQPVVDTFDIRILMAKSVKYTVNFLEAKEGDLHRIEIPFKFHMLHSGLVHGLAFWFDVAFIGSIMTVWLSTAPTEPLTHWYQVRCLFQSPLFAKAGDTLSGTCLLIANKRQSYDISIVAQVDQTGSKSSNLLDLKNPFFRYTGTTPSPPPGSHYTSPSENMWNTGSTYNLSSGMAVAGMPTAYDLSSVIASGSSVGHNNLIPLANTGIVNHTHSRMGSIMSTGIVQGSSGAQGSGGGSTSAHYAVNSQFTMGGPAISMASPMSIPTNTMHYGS
Protein arginine N-methyltransferase 8, sequence (Q9NR22 whole entry): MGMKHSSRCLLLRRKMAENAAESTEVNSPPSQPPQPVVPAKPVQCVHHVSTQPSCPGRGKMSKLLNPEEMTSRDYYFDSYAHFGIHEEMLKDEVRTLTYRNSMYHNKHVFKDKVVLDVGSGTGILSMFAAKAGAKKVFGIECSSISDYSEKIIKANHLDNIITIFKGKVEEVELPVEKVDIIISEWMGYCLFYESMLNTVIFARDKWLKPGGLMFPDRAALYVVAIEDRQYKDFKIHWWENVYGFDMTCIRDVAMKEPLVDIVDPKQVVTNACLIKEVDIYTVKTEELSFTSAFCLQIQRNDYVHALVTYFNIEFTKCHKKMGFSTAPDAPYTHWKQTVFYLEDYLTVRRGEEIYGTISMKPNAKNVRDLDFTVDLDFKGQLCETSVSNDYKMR
Histone-lysine N-methyltransferase SETD7, sequence (Q8WTS6 whole entry): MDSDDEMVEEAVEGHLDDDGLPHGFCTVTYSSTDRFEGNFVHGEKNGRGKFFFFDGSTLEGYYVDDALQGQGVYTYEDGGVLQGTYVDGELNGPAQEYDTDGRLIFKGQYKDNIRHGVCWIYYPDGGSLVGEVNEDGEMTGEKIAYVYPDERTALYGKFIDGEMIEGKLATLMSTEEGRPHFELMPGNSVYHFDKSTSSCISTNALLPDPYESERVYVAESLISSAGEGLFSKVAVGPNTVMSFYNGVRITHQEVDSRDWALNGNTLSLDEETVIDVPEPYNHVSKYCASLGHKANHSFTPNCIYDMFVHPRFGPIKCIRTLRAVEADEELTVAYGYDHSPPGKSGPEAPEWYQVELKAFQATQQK
Serine/threonine-protein kinase Sgk2 (Homo sapiens), sequence (Q9HBY8 whole entry, the tested form may be a part): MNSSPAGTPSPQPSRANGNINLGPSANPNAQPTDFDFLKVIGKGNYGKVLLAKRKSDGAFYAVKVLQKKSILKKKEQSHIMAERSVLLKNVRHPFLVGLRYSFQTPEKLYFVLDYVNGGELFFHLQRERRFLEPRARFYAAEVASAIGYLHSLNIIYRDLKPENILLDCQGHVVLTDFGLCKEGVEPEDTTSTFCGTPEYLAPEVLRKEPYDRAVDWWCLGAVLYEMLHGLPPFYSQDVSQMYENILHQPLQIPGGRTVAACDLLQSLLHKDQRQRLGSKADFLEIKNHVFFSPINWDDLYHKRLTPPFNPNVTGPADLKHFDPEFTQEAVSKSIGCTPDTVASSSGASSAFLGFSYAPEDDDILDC
Histone-lysine N-methyltransferase EHMT1, sequence (Q9H9B1 whole entry, the tested form may be a part): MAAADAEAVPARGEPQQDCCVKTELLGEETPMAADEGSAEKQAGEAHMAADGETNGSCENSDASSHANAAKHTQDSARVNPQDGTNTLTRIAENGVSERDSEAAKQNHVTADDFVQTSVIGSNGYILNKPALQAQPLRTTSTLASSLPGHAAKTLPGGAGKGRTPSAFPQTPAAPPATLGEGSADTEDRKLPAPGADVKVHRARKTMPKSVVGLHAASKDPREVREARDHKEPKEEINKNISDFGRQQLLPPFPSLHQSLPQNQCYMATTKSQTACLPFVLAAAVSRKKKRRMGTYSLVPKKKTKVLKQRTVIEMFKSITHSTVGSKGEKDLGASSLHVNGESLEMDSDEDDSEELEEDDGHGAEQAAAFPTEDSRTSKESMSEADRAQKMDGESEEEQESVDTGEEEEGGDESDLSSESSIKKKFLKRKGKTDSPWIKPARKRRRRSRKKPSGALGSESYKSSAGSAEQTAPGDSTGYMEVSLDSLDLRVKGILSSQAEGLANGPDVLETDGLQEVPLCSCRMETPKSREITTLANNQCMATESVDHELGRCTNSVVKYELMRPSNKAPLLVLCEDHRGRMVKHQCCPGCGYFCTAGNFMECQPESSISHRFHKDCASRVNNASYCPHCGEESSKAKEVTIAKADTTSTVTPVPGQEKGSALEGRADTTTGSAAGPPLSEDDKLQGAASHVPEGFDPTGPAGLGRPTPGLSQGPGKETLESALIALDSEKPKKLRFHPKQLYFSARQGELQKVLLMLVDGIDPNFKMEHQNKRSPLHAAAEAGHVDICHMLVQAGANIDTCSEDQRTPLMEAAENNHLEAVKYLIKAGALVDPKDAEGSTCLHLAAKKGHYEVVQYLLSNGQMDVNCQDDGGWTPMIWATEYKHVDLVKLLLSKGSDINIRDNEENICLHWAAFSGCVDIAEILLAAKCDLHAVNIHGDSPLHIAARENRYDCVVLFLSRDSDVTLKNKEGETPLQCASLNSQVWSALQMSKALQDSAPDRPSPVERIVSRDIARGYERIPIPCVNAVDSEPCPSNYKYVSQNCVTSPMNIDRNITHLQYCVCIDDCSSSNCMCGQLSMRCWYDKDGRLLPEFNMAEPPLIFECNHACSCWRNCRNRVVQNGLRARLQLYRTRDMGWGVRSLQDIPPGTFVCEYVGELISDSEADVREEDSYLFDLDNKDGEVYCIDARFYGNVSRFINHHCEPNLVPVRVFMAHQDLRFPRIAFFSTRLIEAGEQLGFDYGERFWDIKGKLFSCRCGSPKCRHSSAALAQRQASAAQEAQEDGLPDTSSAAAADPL
Protein arginine N-methyltransferase 3, sequence (O60678 whole entry): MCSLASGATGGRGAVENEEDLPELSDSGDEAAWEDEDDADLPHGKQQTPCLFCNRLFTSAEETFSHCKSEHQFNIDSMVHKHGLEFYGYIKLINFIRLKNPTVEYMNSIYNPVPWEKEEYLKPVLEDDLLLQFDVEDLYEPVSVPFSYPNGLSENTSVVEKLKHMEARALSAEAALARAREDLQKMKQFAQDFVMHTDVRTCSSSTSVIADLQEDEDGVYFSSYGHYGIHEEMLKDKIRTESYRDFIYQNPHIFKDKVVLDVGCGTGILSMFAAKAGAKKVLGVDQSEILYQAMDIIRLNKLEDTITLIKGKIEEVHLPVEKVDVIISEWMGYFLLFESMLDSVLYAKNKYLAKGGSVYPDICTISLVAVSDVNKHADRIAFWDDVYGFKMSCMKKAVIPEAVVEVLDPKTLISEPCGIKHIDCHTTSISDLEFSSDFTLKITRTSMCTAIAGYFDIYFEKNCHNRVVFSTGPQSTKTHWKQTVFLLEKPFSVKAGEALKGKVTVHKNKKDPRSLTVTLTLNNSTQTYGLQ

Turning to `Cc1cc(C)c(CNC(=O)c2cc(Br)c3c(c2C)O[C@@](C)([C@H]2CC[C@H](N(C)C)CC2)O3)c(=O)[nH]1`, the inhibition in data set [1] is -3%; in data set [2] it was -3.4%. In [3], this compound displayed an exposure (AUC) of 25.2 µM·h. Also, the Activity is 6.59 10^6 /uL in [4]; 32.5% in data set [5]; 0.028 mg/dL in data set [6]; 1.55 g/dL in data set [7]; “Toxic” in data set [8]; “Toxic” in data set [9]. The Activity entry in data set [10] was “Toxic”.

As to `Cc1cc(C)c(CNC(=O)c2cc(Cl)c3c(c2C)O[C@@](C)([C@H]2CC[C@H](N(C)C)CC2)O3)c(=O)[nH]1` [VALEMETOSTAT], the concentration for 50% growth inhibition (GI50) was 24.3 nM in the data set with SUP-B15; more than 1000 nM in the data set with NCI-H929; 14.3 nM in the data set on P3HR-1; 1.56 nM with KARPAS-422; 55.5 nM in the data set on SUD4; more than 1000 nM in the data set on OCI-LY19. The GI50 in the data set on SK-BR-3 is 6.38 nM; in data set [20] it was 21 nM; in the data set with HCC1599, more than 1000 nM; with Hs-578T it was more than 1000 nM; in the data set on SNU-398, 2.07 nM; in data set [21] it was more than 1000 nM. In addition, the 50% growth inhibitory concentration (GI50) is more than 1000 nM in data set [22]; 12.5 nM in data set [23]; more than 1000 nM with HGC-27; more than 1000 nM in the data set with Hs746T; more than 1000 nM with ZR-75-30. Besides, the concentration for half-maximal inhibition (IC50) in data set [11], in data set [12], in data set [13], in data set [14], in [15] and in data set [16] was 100000 nM in each case. In addition, the 50% inhibitory concentration (IC50) in data set [17] and in [18] was 100000 nM each time. Further, the inhibition was -3.8% in [1], -4.9% in [2] and -9% in data set [19].
